# Laboratory results from patent publication US9399646B2 (Genentech, Inc., priority 2010, dated 2016).
# Assays:
# ER-α in MCF-7 cells = target: T1, ER-α in MCF-7 cells (Homo sapiens, UniProt P03372); assay: Breast cancer cell ER-α in cell western assay (SP1); format: cell-based; design: endogenous in cells; host or cells: MCF-7; details: 4 or 24 hr post compound addition; for Emax: MCF7, SP1 antibody, read-out: ER-α In Cell Western Assay (SP1) Max Response; for DC50: SP1 antibody, read-out: ER-α In Cell Western Assay (SP1) IC50
# T1 sequence (P03372 1-595): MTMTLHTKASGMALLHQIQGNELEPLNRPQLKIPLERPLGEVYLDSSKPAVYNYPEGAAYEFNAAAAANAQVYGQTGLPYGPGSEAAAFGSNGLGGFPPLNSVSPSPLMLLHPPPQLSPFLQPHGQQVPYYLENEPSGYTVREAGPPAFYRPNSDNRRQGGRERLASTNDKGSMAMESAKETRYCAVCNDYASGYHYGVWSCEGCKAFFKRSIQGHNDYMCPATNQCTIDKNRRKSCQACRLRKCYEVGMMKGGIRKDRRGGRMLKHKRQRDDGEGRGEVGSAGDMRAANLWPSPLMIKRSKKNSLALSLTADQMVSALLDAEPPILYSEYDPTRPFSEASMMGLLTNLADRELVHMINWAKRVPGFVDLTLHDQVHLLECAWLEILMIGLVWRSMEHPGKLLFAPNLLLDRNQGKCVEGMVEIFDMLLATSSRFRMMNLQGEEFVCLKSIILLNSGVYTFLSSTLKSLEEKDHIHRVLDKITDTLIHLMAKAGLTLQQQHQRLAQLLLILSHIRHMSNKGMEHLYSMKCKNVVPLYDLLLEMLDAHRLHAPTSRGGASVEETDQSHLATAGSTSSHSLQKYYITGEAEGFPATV
# How it was run: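 Percent remaining ER: SP1 immunofluorescence normalized to DRAQ5 nuclear stain, compared with untreated controls. Treatment lasted 4 or 24 hr across 0.3–0.000003 μM final in MCF-7.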
# MCF-7 cells = assay: Breast cancer cell viability assay (CellTiter-Glo, 5 days); format: cell-based; details: 5 days' compound exposure; for IC50: Homo sapiens, MCF7, 120 h
# How it was run: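 Eleven-point semilog compound series, final 0.3-0.000003 μM, added to overnight-adhered MCF-7 cells (320/well; RPMI, 10% FBS, 20 mM HEPES) for 5 days. Viability read by CellTiter-Glo luminescence, background from medium without cells subtracted, expressed relative to untreated cells.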
Emax (ER-α in MCF-7 cells),DC50 (ER-α in MCF-7 cells),IC50 (MCF-7 cells),SMILES,MCF7 Viability Assay Max Response (MCF-7 cells)
≥ 40%,> 0.1 µM,> 0.1 µM,"CC/C(=C(/c1ccc(/C=C/C(=O)O)cc1)c1ccc2[nH]ncc2c1)c1ccc(OCCO)cc1 [Compound 360, (E)-3-(4-((E)-2-(4-(2-Hydroxyethoxy)phenyl)-1-(1H-indazol-5-yl)but-1-en-1-yl)phenyl)acrylic acid]",++ (++ = a single % value ≧ 40%)
≥ 40%,≤ 0.1 µM,≤ 0.1 µM,"CC/C(=C(/c1ccc(/C=C/C(=O)O)cc1)c1ccc2[nH]ncc2c1)c1cccc(Oc2ccccn2)c1 [Compound 362, (E)-3-(4-((E)-1-(1H-Indazol-5-yl)-2-(3-(pyridin-2-yloxy)phenyl)but-1-en-1-yl)phenyl)acrylic acid]",++ (++ = a single % value ≧ 40%)
≥ 40%,≤ 0.1 µM,≤ 0.1 µM,"CC/C(=C(/c1ccc(/C=C/C(=O)O)cc1)c1ccc2[nH]ncc2c1)c1cccc(Oc2ncccn2)c1 [Compound 363, (E)-3-(4-((E)-1-(1H-Indazol-5-yl)-2-(3-(pyrimidin-2-yloxy)phenyl)but-1-en-1-yl)phenyl)acrylic acid]",++ (++ = a single % value ≧ 40%)
≥ 40%,≤ 0.1 µM,≤ 0.1 µM,"CC/C(=C(/c1ccc(/C=C/C(=O)O)cc1)c1ccc2[nH]ncc2c1)c1cccc(Oc2ccncn2)c1 [Compound 364, (E)-3-(4-((E)-1-(1H-Indazol-5-yl)-2-(3-(pyrimidin-4-yloxy)phenyl)but-1-en-1-yl)phenyl)acrylic acid]",++ (++ = a single % value ≧ 40%)
≥ 40%,≤ 0.1 µM,≤ 0.1 µM,"CC/C(=C(/c1ccc(/C=C/C(=O)O)cc1)c1ccc2[nH]ncc2c1)c1cccc(Oc2cccnc2)c1 [Compound 365, (E)-3-(4-((E)-1-(1H-Indazol-5-yl)-2-(3-(pyridin-3-yloxy)phenyl)but-1-en-1-yl)phenyl)acrylic acid]",++ (++ = a single % value ≧ 40%)
≥ 40%,≤ 0.1 µM,≤ 0.1 µM,"CC/C(=C(/c1ccc(/C=C/C(=O)O)cc1)c1ccc2[nH]ncc2c1)c1cccc(Oc2ccncc2)c1 [Compound 366, (E)-3-(4-((E)-1-(1H-Indazol-5-yl)-2-(3-(pyridin-4-yloxy)phenyl)but-1-en-1-yl)phenyl)acrylic acid]",++ (++ = a single % value ≧ 40%)
≥ 40%,≤ 0.1 µM,≤ 0.1 µM,"CC/C(=C(/c1ccc(/C=C/C(=O)O)cc1)c1ccc2[nH]ncc2c1)c1cccc(Oc2ccccc2F)c1 [Compound 367, (E)-3-(4-((E)-2-(3-(2-Fluorophenoxy)phenyl)-1-(1H-indazol-5-yl)but-1-en-1-yl)phenyl)acrylic acid]",++ (++ = a single % value ≧ 40%)
≥ 40%,≤ 0.1 µM,≤ 0.1 µM,"CC/C(=C(/c1ccc(/C=C/C(=O)O)cc1)c1ccc2[nH]ncc2c1)c1cccc(Oc2ccccc2C)c1 [Compound 368, (E)-3-(4-((E)-1-(1H-Indazol-5-yl)-2-(3-(o-tolyloxy)phenyl)but-1-en-1-yl)phenyl)acrylic acid]",++ (++ = a single % value ≧ 40%)
≥ 40%,≤ 0.1 µM,> 0.1 µM,"CC/C(=C(/c1ccc(/C=C/C(=O)O)cc1)c1ccc2[nH]ncc2c1)c1cccc(Oc2cncnc2)c1 [Compound 369, (E)-3-(4-((E)-1-(1H-Indazol-5-yl)-2-(3-(pyrimidin-5-yloxy)phenyl)but-1-en-1-yl)phenyl)acrylic acid]",++ (++ = a single % value ≧ 40%)
≥ 40%,≤ 0.1 µM,≤ 0.1 µM,"CC/C(=C(/c1ccc(/C=C/C(=O)O)cc1)c1ccc2[nH]ncc2c1)c1cccc(Oc2nccs2)c1 [Compound 370, (E)-3-(4-((E)-1-(1H-Indazol-5-yl)-2-(3-(thiazol-2-yloxy)phenyl)but-1-en-1-yl)phenyl)acrylic acid]",++ (++ = a single % value ≧ 40%)
≥ 40%,≤ 0.1 µM,≤ 0.1 µM,"CC/C(=C(/c1ccc(/C=C/C(=O)O)cc1)c1ccc2[nH]ncc2c1)c1cccc(Oc2cnccn2)c1 [Compound 371, (E)-3-(4-((E)-1-(1H-Indazol-5-yl)-2-(3-(pyrazin-2-yloxy)phenyl)but-1-en-1-yl)phenyl)acrylic acid]",++ (++ = a single % value ≧ 40%)
≥ 40%,≤ 0.1 µM,> 0.1 µM,"CC/C(=C(/c1ccc(/C=C/C(=O)O)cc1)c1ccc2[nH]ncc2c1)c1cccc(Oc2ccncc2C(F)(F)F)c1 [Compound 372, (E)-3-(4-((E)-1-(1H-Indazol-5-yl)-2-(3-((3-(trifluoromethyl)pyridin-4-yl)oxy)phenyl)but-1-en-1-yl)phenyl)acrylic acid]",++ (++ = a single % value ≧ 40%)
≥ 40%,≤ 0.1 µM,≤ 0.1 µM,"CC/C(=C(/c1ccc(/C=C/C(=O)O)cc1)c1ccc2[nH]ncc2c1)c1cccc(Oc2ccc(S(C)(=O)=O)cc2)c1 [Compound 373, (E)-3-(4-((E)-1-(1H-Indazol-5-yl)-2-(3-(4-(methylsulfonyl)phenoxy)phenyl)but-1-en-1-yl)phenyl)acrylic acid]",++ (++ = a single % value ≧ 40%)
≥ 40%,> 0.1 µM,> 0.1 µM,"CC/C(=C(/c1ccc(/C=C/C(=O)O)cc1)c1ccc2[nH]ncc2c1)c1cccc(Oc2ccccc2S(C)(=O)=O)c1 [Compound 374, (E)-3-(4-((E)-1-(1H-Indazol-5-yl)-2-(3-(2-(methylsulfonyl)phenoxy)phenyl)but-1-en-1-yl)phenyl)acrylic acid]",++ (++ = a single % value ≧ 40%)
≥ 40%,≤ 0.1 µM,≤ 0.1 µM,"CC/C(=C(/c1ccc(/C=C/C(=O)O)cc1)c1ccc2[nH]ncc2c1F)c1cccc(Oc2ccccn2)c1 [Compound 375, (E)-3-(4-((E)-1-(4-Fluoro-1H-indazol-5-yl)-2-(3-(pyridin-2-yloxy)phenyl)but-1-en-1-yl)phenyl)acrylic acid]",++ (++ = a single % value ≧ 40%)
≥ 40%,≤ 0.1 µM,≤ 0.1 µM,"CC/C(=C(/c1ccc(/C=C/C(=O)O)cc1)c1ccc2[nH]ncc2c1F)c1cccc(Oc2ncccn2)c1 [Compound 376, (E)-3-(4-((E)-1-(4-Fluoro-1H-indazol-5-yl)-2-(3-(pyrimidin-2-yloxy)phenyl)but-1-en-1-yl)phenyl)acrylic acid]",++ (++ = a single % value ≧ 40%)
≥ 40%,≤ 0.1 µM,≤ 0.1 µM,"CC/C(=C(/c1ccc(/C=C/C(=O)O)cc1)c1ccc2[nH]ncc2c1F)c1cccc(Oc2cnccn2)c1 [Compound 377, (E)-3-(4-((E)-1-(4-Fluoro-1H-indazol-5-yl)-2-(3-(pyrazin-2-yloxy)phenyl)but-1-en-1-yl)phenyl)acrylic acid]",++ (++ = a single % value ≧ 40%)
≥ 40%,≤ 0.1 µM,≤ 0.1 µM,"CC/C(=C(/c1ccc(/C=C/C(=O)O)cc1)c1ccc2[nH]ncc2c1F)c1cccc(Oc2ccc(S(C)(=O)=O)nc2)c1 [Compound 378, (E)-3-(4-((E)-1-(4-Fluoro-1H-indazol-5-yl)-2-(3-((6-(methylsulfonyl)pyridin-3-yl)oxy)phenyl)but-1-en-1-yl)phenyl)acrylic acid]",++ (++ = a single % value ≧ 40%)
≥ 40%,≤ 0.1 µM,≤ 0.1 µM,"CC/C(=C(/c1ccc(/C=C/C(=O)O)cc1)c1ccc2[nH]ncc2c1)c1cccc(Oc2ccc(S(C)(=O)=O)cn2)c1 [Compound 379, (E)-3-(4-((E)-1-(1H-Indazol-5-yl)-2-(3-((5-(methylsulfonyl)pyridin-2-yl)oxy)phenyl)but-1-en-1-yl)phenyl)acrylic acid]",++ (++ = a single % value ≧ 40%)
≥ 40%,≤ 0.1 µM,> 0.1 µM,"CC/C(=C(/c1ccc(/C=C/C(=O)O)cc1)c1ccc2[nH]ncc2c1)c1cccc(Oc2ccc(S(C)(=O)=O)nc2)c1 [Compound 380, (E)-3-(4-((E)-1-(1H-Indazol-5-yl)-2-(3-((6-(methylsulfonyl)pyridin-3-yl)oxy)phenyl)but-1-en-1-yl)phenyl)acrylic acid]",++ (++ = a single % value ≧ 40%)
